Results taken from paper PMC7876453, “Targeting Indoleamine 2,3-Dioxygenase in Cancer Models Using the Novel Small Molecule Inhibitor NTRC 3883-0” (Frontiers in Immunology, 2021).
Read-outs that look alike come from different tables or passages of the source.

Assays:
[1] = in vivo pharmacokinetics, dog; design: species or system Beagle dogs; details: Beagle, plasma; for clearance / Vd: intravenous; for Vd: read-out: Vss
Description: Pharmacokinetic properties of NTRC 3883-0 were determined in plasma following single oral (p.o.) and i.v. administration to male CD-1 mice (n = 6 per treatment group with three mice sampled per time point), Wistar rats (n = 3), cynomolgus monkey (n = 1) and Beagle dogs (n = 3). Formulations were prepared in DMSO, Kolliphor® EL, 5% D-mannitol in Elix water at a volume ratio of 1:1:8 for i.v. administration, and in 0.5% gelatin, 5% D-mannitol in Elix water for p.o. administration. Plasma samples were collected at eight to eleven time points up to 24 h after administration. Pharmacokinetic properties and required dosing in humans were predicted by allometric scaling by Karin Jorga Life Science Consulting (Basel, Switzerland) ( Figure S2 and Table S2 ).

[2] = tested on: CT26 cells implanted subcutaneously into female BALB/c mice; test: CT26 mouse model, second study (Charles River); type: in vivo
Description: For the second study, performed at Charles River Laboratories, 3 × 10^5 CT26 cells were implanted subcutaneously into female BALB/c mice on day 0. […] Tumor growth was monitored using caliper measurement 3 times weekly. A tumor volume of 2000 mm^3 was used as the endpoint of the experiment for the individual animals. Tumors were sampled 2 h post last dose.
Tissues were homogenized in PBS at a ratio of 1 mg per 10 μl using micro pellet pestles mounted on a Micro-Tube Homogenizer System (Thomas Scientific). After centrifugation, proteins were removed from the homogenized tissue supernatants and plasma samples by precipitation with methanol. The concentrations of inhibitor, Trp and Kyn were determined by LC-MS/MS.

[3] = tested on: unstimulated adherent cell samples isolated from ascites of ovarian cancer patients; test: Trp-catabolizing activity in unstimulated ascites cell samples; type: cell-based, human; details: for IC50: Homo sapiens
Description: Ascites was collected from patients with a primary diagnosis of advanced epithelial ovarian cancer during paracentesis for diagnostics or symptom relieve, or during primary debulking surgery. Ascites was filtered and cells were collected by centrifugation as described ([23]). To enrich for tumor cells, ascites cell samples were allowed to adhere overnight to tissue culture plastic. The cell samples were then cultured for 2–3 weeks in advanced RPMI medium (ThermoFisher), supplemented with 10% FBS, 1% glutamax and 1% P/S, with 2 or 3 times passaging of the cells. qPCR analyses of the MUC16, HE4, IDO1, and TDO2 genes were performed for all samples as described above. Five samples which could be cultured over multiple passages were analyzed for cell surface expression of mucin-16 and EpCAM by flow cytometry using FITC-conjugated anti-mucin-16 (AssayPro, #32189-05141) and APC-conjugated anti-EpCAM (Miltenyi, #130-111-117, RRID: AB_2657496) to assure that the cell cultures consisted of malignant cells. IDO1 mRNA and protein levels in these samples were analyzed as described above after incubation with or without 200 ng/ml IFNγ for 24 h. The collection of ascites and the research described was conducted with approval of the medical ethical committee of the Radboud university medical center and informed written consent from each subject.

`O=C1CN(C(=O)c2c(F)cccc2F)[C@H](c2cccc(Br)c2)N1O` [NTRC 3883-0] showed a half-life [1] of 2.8 h, a clearance [1] of 1.72 L/h/kg and a clearance ([1]; body weight 10 kg) of 286 mL/min. For the same compound, the Vd ([1]; body weight 10 kg) was 13.6 L, the Vd [1] was 1.36 L/kg and the bioavailability ([1]; po, p.o. versus i.v., read-out: Bioavailability (F)) was 32%. The tumor growth ([2]; 100 mg/kg p.o. b.i.d. from day 8) was “no inhibition of tumor growth”, the “Kyn levels in the tumor” value ([2]; LC-MS/MS, 2 h post last dose, 100 mg/kg p.o. b.i.d.) was “considerable reduction of Kyn levels” and the “inhibition of basal Trp-catabolizing activity (in words)” value [3] was “no or only minimal inhibition”. For the same compound, the IC50 ([3]; mean of samples, read-out: IC50 Mean) was > 31.6 µM, the IC50 ([3]; read-out: IC50 ASC 010) was > 31.6 µM and the IC50 ([3]; read-out: IC50 ASC 013) was > 31.6 µM. The IC50 ([3]; read-out: IC50 ASC 031) was > 31.6 µM and the IC50 ([3]; read-out: IC50 ASC 041) was > 31.6 µM.
